Reference: ChEMBL document CHEMBL4011641, “Prodrugs of Pyrazolo[3,4-d]pyrimidines: From Library Synthesis to Evaluation as Potential Anticancer Agents in an Orthotopic Glioblastoma Model” (J Med Chem, 2017)
≈ marks a conversion by molar mass, not a printed value.

Experiments:
[1] = Half life in PBS buffer at 100 uM at pH 7.4 by UV/LC-MS analysis; format: physicochemical
[2] = target: Tyrosine-protein kinase ABL1 (Homo sapiens, UniProt P00519)
Description: Inhibition of human wild type full length N-terminal GST/6His-tagged ABL (P118 to S535 residues) expressed in Sf9 cells using abltide as substrate after 5 mins in presence of [gamma-32P]ATP by scintillation counting

[3] = Half life in human plasma by UV/LC-MS analysis; format: ADME, cell-free
physchem [4] = conditions: PAMPA
Description: Apparent permeability at 500 uM after 5 hrs by Blood-Brain Barrier-based PAMPA

cells [5] = conditions: Homo sapiens, U-87 MG, 48 h
Description: Cytotoxicity against human U87 cells assessed as reduction in cell viability after 48 hrs by trypan blue assay

physchem [6] = conditions: PAMPA; remark: listed apart in the source
Description: (§1) Apparent permeability at 500 uM after 5 hrs by Gastro-intestinal-based PAMPA

[7] = Half life in methanol at 100 uM by UV/LC-MS analysis; format: physicochemical
[8] = Drug uptake in cytoplasm of human U87 cells at 20 uM after 7 hrs by UV/LC-MS analysis; format: ADME
[9] = target: Proto-oncogene tyrosine-protein kinase Src (Homo sapiens, UniProt P12931); experiment: biochemical
Chain of Proto-oncogene tyrosine-protein kinase Src (P12931 2-536 limits assumed): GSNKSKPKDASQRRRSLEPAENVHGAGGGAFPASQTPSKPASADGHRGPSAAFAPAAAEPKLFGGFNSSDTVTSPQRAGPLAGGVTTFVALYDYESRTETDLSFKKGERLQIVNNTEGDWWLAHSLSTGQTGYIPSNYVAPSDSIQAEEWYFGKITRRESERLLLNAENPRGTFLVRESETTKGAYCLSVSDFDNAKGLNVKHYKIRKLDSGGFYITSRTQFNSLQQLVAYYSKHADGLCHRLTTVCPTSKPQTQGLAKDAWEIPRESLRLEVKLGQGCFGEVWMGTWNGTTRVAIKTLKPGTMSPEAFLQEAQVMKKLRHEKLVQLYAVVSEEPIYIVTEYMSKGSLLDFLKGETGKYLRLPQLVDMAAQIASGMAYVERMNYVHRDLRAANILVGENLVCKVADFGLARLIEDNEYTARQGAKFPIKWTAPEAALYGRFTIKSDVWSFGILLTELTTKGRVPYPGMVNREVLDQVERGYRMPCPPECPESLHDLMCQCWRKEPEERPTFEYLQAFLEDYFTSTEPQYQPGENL
Description: Inhibition of human wild type full length N-terminal GST/6His-tagged SRC (M1 to L536 residues) expressed in baculovirus infected Sf9 cells using src peptide as substrate after 5 mins in presence of [gamma-32P]ATP by scintillation counting method

cells [10] = conditions: Homo sapiens, U-87 MG, 72 h
Description: Cytotoxicity against human U87 cells assessed as reduction in cell viability after 72 hrs by trypan blue assay

cells [11] = conditions: Homo sapiens, U-87 MG, 24 h
Description: Cytotoxicity against human U87 cells assessed as reduction in cell viability after 24 hrs by trypan blue assay

[12] = Prodrug activation in human U87 cells assessed as N-(3-bromophenyl)-6-(methylthio)-1-(2-phenylpropyl)-1H-pyrazolo[3,4-d]pyrimidin-4-amine formation at 20 uM up to 25 hrs by UV/LC-MS analysis; format: cell-based; conditions: u-87mg atcc
physchem [13] = conditions: aqueous
Description: Aqueous solubility of compound at 1 mg after 24 hrs by UV/LC-MS analysis

[14] = Metabolic stability in human liver microsomes assessed as parent compound remaining at 50 uM after 1 hr in presence of NADPH regenerating system by UV/LC-MS analysis; format: ADME, microsome; conditions: read-out: Stability
[15] = pampa, 5 h, 500 µM
Description: as §1

[16] = Metabolic stability in mouse liver microsomes assessed as unmetabolized compound remaining at 50 uM after 1 hr in presence of NADPH regenerating system by UV/LC-MS analysis; format: ADME, microsome; conditions: read-out: Stability
[17] = Drug uptake in cytoplasm of human U87 cells at 20 uM after 2 hrs by UV/LC-MS analysis; format: ADME
[18] = Drug uptake in cytoplasm of human U87 cells at 20 uM after 5 hrs by UV/LC-MS analysis; format: ADME
[19] = Half life in mouse plasma by UV/LC-MS analysis; format: ADME, cell-free

Chain of Tyrosine-protein kinase ABL1 (P00519 whole entry): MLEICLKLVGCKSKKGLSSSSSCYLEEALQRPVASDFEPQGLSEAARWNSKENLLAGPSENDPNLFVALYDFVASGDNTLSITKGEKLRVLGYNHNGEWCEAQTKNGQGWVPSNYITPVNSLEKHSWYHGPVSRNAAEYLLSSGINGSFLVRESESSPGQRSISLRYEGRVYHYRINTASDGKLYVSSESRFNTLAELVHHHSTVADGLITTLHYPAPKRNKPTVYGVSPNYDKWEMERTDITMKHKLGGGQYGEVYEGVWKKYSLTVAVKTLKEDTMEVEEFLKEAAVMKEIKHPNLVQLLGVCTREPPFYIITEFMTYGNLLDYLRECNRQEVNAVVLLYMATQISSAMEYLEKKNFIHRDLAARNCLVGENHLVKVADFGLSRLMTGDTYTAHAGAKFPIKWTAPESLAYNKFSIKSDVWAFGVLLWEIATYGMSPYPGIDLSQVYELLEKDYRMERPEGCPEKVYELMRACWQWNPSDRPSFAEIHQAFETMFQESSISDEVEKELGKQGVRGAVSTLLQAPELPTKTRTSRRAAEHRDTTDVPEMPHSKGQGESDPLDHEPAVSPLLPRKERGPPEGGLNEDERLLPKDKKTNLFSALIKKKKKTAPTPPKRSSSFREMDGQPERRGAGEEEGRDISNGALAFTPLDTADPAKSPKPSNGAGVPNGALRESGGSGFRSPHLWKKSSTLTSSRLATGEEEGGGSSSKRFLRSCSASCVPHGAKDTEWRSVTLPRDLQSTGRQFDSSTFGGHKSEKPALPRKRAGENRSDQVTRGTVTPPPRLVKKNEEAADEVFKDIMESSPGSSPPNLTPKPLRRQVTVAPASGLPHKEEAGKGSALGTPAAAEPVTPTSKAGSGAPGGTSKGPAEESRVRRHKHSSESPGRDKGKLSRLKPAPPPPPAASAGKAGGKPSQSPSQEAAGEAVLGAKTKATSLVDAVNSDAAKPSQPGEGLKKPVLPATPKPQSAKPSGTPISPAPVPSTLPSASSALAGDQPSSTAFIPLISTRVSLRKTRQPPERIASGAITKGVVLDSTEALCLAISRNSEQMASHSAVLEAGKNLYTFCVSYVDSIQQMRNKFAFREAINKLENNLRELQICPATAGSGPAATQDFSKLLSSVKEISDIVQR

| SMILES | half-life at 100 µM [1] [min] | Ki [2] [µM] | half-life [3] [min] | Papp at 5 h, 500 µM (physchem [4]) [×10⁻⁶ cm/s] | IC50 (cells [5]) [µM] | Papp at 5 h, 500 µM (physchem [6]) [×10⁻⁶ cm/s] | half-life at 100 µM [7] [min] | Drug uptake [8] | Ki [9] [µM] | IC50 (cells [10]) [nM] | IC50 (cells [11]) [µM] | Drug metabolism [12] | solubility at 24 h (physchem [13]) [µg/mL] | remaining at 1 h, 50 µM [14] [%] | Papp [15] [×10⁻⁶ cm/s] | remaining at 1 h, 50 µM [16] [%] | Drug uptake [17] | Drug uptake [18] | half-life [19] [min] |
| --- | --- | --- | --- | --- | --- | --- | --- | --- | --- | --- | --- | --- | --- | --- | --- | --- | --- | --- | --- |
| CSc1nc(N(C(=O)OC(Cc2ccccc2)CN2CCN(C)CC2)c2cccc(Br)c2)c2cnn(CC(C)c3ccccc3)c2n1 (stereo unspecified) | > 2880 | > 100 | 2400 | 1.01 | 2.45 | 2.32 | > 2880 | Active | > 100 | 1690 | 6.7 | Metabolite_Detected | 0.99 (≈ 1.39 µM) | – | – | – | – | – | – |
| CCCCN(C(=O)OCCN1CCN(C)CC1)c1nc(SCC)nc2c1cnn2CC(Cl)c1ccccc1 (stereo unspecified) | 60 | – | 27.6 | – | – | – | 120 | – | – | – | – | – | – | – | – | – | – | – | – |
| CSc1nc(NCCc2ccccc2)c2cnn(CC(Cl)c3ccccc3)c2n1 (stereo unspecified) | – | – | – | 6.17 | – | 7.4 | – | – | – | – | – | – | 0.07 (≈ 0.165 µM) | 96.2 | – | – | – | – | – |
| CSc1nc(N(CCc2ccccc2)C(=O)OCCN2CCN(C)CC2)c2cnn(CC(Cl)c3ccccc3)c2n1 (stereo unspecified) | > 2880 | – | 2710 | 0.01 | – | 0.85 | > 2880 | – | – | – | – | – | 107 (≈ 180 µM) | – | – | – | – | – | – |
| CSc1nc(N(C(=O)OC(C)CN2CCN(C)CC2)c2cccc(Br)c2)c2cnn(CC(C)c3ccccc3)c2n1 (stereo unspecified) | > 2880 | > 100 | – | 2.39 | 4.5 | 2.15 | > 2880 | Active | > 100 | 1800 | 7.4 | Metabolite_Detected | 3.4 (≈ 5.32 µM) | – | – | – | – | – | – |
| CSc1nc(Nc2cccc(Cl)c2)c2cnn(CCc3ccccc3)c2n1 | – | – | – | 1.48 | – | – | – | – | – | – | – | – | – | 99 | 0.25 | – | – | – | – |
| CN1CCN(CCOC(=O)N(Cc2ccccc2)c2ncnc3c2cnn3CC(Cl)c2ccccc2)CC1 (stereo unspecified) | > 2880 | – | 3860 | 5.01 | 15.2 | 6.7 | > 2880 | – | – | 15000 | 18.6 | – | 18.8 (≈ 35.2 µM) | 86.4 | – | – | – | – | – |
| CCCCNc1nc(SCC)nc2c1cnn2CC(Cl)c1ccccc1 (stereo unspecified) | – | – | – | 9.99 | – | – | – | – | – | – | – | – | 0.05 (≈ 0.128 µM) | – | – | – | – | – | – |
| CSc1nc(Nc2cccc(Br)c2)c2cnn(CC(C)c3ccccc3)c2n1 (stereo unspecified) | – | – | – | 0.5 | 2.3 | 0.01 | – | – | – | 1500 | 16.2 | – | 0.01 (≈ 0.022 µM) | – | – | 94.2 | – | – | – |
| ClC(Cn1ncc2c(Nc3ccccc3)ncnc21)c1ccc(Br)cc1 (stereo unspecified) | – | – | – | – | 17.3 | – | – | – | – | 14000 | 25.3 | – | 0.06 (≈ 0.14 µM) | 96.4 | – | – | – | – | – |
| CN1CCN(CCOC(=O)N(c2ccccc2)c2ncnc3c2cnn3CC(Cl)c2ccc(Br)cc2)CC1 (stereo unspecified) | > 2880 | – | 341 | 6.97 | 5.1 | 9.91 | > 2880 | – | – | 2000 | 8.2 | – | 41.6 (≈ 69.4 µM) | – | – | – | – | – | – |
| Clc1ccccc1CNc1ncnc2c1cnn2CC(Cl)c1ccc(Br)cc1 (stereo unspecified) | – | – | – | 13.2 | – | – | – | – | – | – | – | – | < 0.01 | 95.2 | – | – | – | – | – |
| ClC(Cn1ncc2c(NCc3ccccc3)ncnc21)c1ccccc1 (stereo unspecified) | – | – | – | – | 4.9 | – | – | – | – | 2900 | 14.6 | – | 0.7 (≈ 1.92 µM) | 78.3 | – | – | – | – | – |
| CSc1nc(N(C(=O)OCCN2CCN(C)CC2)c2cccc(Cl)c2)c2cnn(CCc3ccccc3)c2n1 | > 2880 | – | 188 | 4.3 | – | 4.69 | > 2880 | – | – | – | – | – | 6.32 (≈ 11.2 µM) | – | – | – | – | – | – |
| CCC(CN1CCN(C)CC1)OC(=O)N(c1cccc(Br)c1)c1nc(SC)nc2c1cnn2CC(C)c1ccccc1 (stereo unspecified) | > 2880 | – | 678 | 0.93 | 6.4 | 1.45 | > 2880 | – | – | 2000 | 7.7 | – | 1.96 (≈ 3 µM) | – | – | – | – | – | – |
| CSc1nc(Nc2cccc(Cl)c2)c2cnn(CC(Cl)c3ccccc3)c2n1 (stereo unspecified) | – | – | – | 3.14 | 17.2 | – | – | – | 0.72 | 12500 | 21.8 | – | 0.13 (≈ 0.302 µM) | 91.1 | 0.26 | – | – | – | – |
| CN1CCN(CCOC(=O)N(Cc2ccccc2Cl)c2ncnc3c2cnn3CC(Cl)c2ccc(Br)cc2)CC1 (stereo unspecified) | > 2880 | – | 4500 | 1.92 | – | 2.38 | > 2880 | – | – | – | – | – | 1.95 (≈ 3.01 µM) | – | – | – | – | – | – |
| CSc1nc(N(C(=O)OCCN2CCN(C)CC2)c2cccc(Br)c2)c2cnn(CC(C)c3ccccc3)c2n1 (stereo unspecified) | > 2880 | > 100 | – | 1.89 | 2.2 | – | > 2880 | – | > 100 | 1570 | 7.3 | Metabolite_Detected | 6.47 (≈ 10.4 µM) | – | – | 93.3 | Active | Active | 120 |
| CSc1nc(N(C(=O)OC(CN2CCN(C)CC2)c2ccccc2)c2cccc(Br)c2)c2cnn(CC(C)c3ccccc3)c2n1 (stereo unspecified) | < 15 | – | – | – | – | – | < 15 | – | – | – | – | – | – | – | – | – | – | – | – |
| CSc1nc(N(C(=O)OCCN2CCN(C)CC2)c2cccc(Cl)c2)c2cnn(CC(Cl)c3ccccc3)c2n1 (stereo unspecified) | > 2880 | – | 223 | 4.14 | 7.9 | 4.95 | > 2880 | – | – | 2540 | 11.5 | – | 4.22 (≈ 7.03 µM) | – | – | – | – | – | – |
